Data published in patent publication US20200352918A1, “COMPOUNDS AND METHODS FOR TREATING OR PREVENTING FIBROSIS” (priority 2019, published 2020).
Counter-ions that a name gives are not always drawn.

Tests used:
[1] = test system: iFA phenotype of mesenchymal-like cells on 13 kPa hydrogels; assay: iFA-prevention phenotypic high-content drug screen (iFA model); type: cell-based, human; conditions: for Dose response: 20 point dose course, picomolar to millimolar; for Efficacy in secondary screen: assay repeated with compound sourced commercially or from additional library materials; for Prevention/rescue of the iFA phenotype: 3.75 μgm/ml IFNγ (FIG. 25C)
Method: Mesenchymal-like cells were cultured on 13 kPa functionalized polyacrylamide gels that were prepared as follows. 187.5 μl of 40% acrylamide, 60 μl of 2% bis-acrylamide and 8.55 μl of sodium bisulfate in a final volume of 990 μl of water was incubated for 20 min at room temperature to degas the mixture. To this mixture, 0.10% ammonium persulfate and 0.15% TEMED were added, mixed and 100 μl of the solution was added onto a 0.4% 3-(Trimethoxysily) propyl methacrylate pH 3.5 treated coverslip. A 2% dimethyl dichlorosilane in chloroform treated round glass coverslip was then inverted on the acrylamide solution and allowed to polymerize for 15 min between the two surfaces. The top coverslip was gently removed, and the bottom coverslips with the hydrogel were transferred to appropriate multi-well low adherent tissue culture plate containing coupling buffer (0.1 M sodium phosphate dibasic, 0.1 M sodium phosphate monobasic) pH 8. To functionalize the hydrogel, 1 part of 0.1 M p-benzoquinone in dioxane was added to the hydrogels containing 4 parts of coupling buffer and incubated at 37° C. for 30 min. The gel was then successively washed with 20% dioxane in water, water, 0.1 M sodium acetate buffer at pH 4.0 containing 1.0 M sodium chloride, 0.1 M sodium bicarbonate solution at pH 8.5 containing 1.0 M sodium chloride, and finally with coupling buffer at pH 7.5. The hydrogels were then coated with 0.1% gelatin for 2 hrs prior to seeding the cells. Cells were seeded at a density of 3000 cells/cm^2.
A phenotypic high-content drug screen was prepared to identify compounds capable of preventing the iFA phenotype in a 96-well format. An ImageXpress XL high-throughput imager with a 4× Plan objective (N/A 0.20) was used with image based focusing. Briefly, 100 μL media were plated in each well of 96 well plate using a Thermo Multidrop non-contact dispenser. Using a custom V&P pin tool mounted to a Beckman FX liquid handler, 1.5 μL compounds or DMSO were added. Mesenchymal-like cells were added as a suspension using the Multidrop at a density of 3.5×10^3 cells/well. The resulting compound concentration was 10 μM. Cells were imaged after 7 days of incubation at 37° C. and 5% CO2: A final of 0.5 μg/ml of Calcein AM and/or 10 μg/ml propidium iodide (viability dye) with 1 μg/ml Hoechst 33342 were added and imaged using the ImageXpress XL system. Data mining was performed using a custom module consisting of the following steps: The image background was removed using a top-hat filter with 25 μm round shape polisher. Next, cellular aggregates and individual spindle-shaped cells were identified. Aggregates of cells were defined by size with a cut-off of 60 to 200 micron and an intensity of at least 200 gray scales over background. Individual spindle-shaped cells were identified as smaller objects with cut-offs from 15 to 100 micron and a lower intensity of at least 70 gray scales over background.
Additional morphometric measurements were made by counting labeled cell nuclei and measuring total area covered with cells per well. The data resulting from the screen were batch exported through MetaXpress and uploaded into a Collaborative Drug Discovery (CDD) cloud based database (Ekins and Bunin, 2013, Methods in molecular biology 993, 139-154.). Hits were selected on a cut-off of more than 3 standard deviations from mean using data normalized to reference wells in each plate. IC50 values (the half maximal inhibitory concentration) from confirmation experiments were calculated from dose-response signal curves using the Prism software (GraphPad Software).
Signal-to-background (S/B) ratio, standard variation and variation coefficients were calculated as the signal of DMSO treated wells divided by the signal of the hit compound (AA5) treated wells. […]

iFA model = assay: Fibrotic marker, cytokine and repair modulator expression in the iFA model (qPCR, immunoblotting, luminex, immunofluorescence); type: cell-based, human; conditions: 3.75 μgm/ml IFNγ vs DMSO-treated controls
Method: The Milliplex human cytokine/chemokine Panel IV, human TIMP Panel 2, and human TGFβ 1,2,3 magnetic bead kits (EMD Millipore) were used per manufacturer's instructions. Prior to plating, all samples tested for human TGFβ only were activated and neutralized with 1.0 N HCl and 1.0 N NaOH, respectively. Briefly, 25 μl of undiluted or treated cell culture supernatant samples were mixed with 25 μl of magnetic beads and allowed to incubate overnight at 4° C. while shaking. After washing the plates with wash buffer in a Biotek ELx405 washer, 25 μl of biotinylated detection antibody was added and incubated for 1 hour at room temperature while shaking. 25 μl of streptavidin-phycoerythrin conjugate was then added to the reaction mixture and incubated for another 30 minutes at room temperature while shaking. Following additional washes, beads were resuspended in sheath fluid, and fluorescence was quantified using a Luminex 200 instrument. Similarly, a custom magnetic Luminex assay kit of select analytes (R&D Systems) was used per manufacturer's instructions. Cell culture supernatants were prepared with a 2-fold dilution. 50 μl of diluted sample were added to 50 μl of provided micro-particle cocktail and incubated for 2 hours at room temperature while shaking. After washing with wash buffer, 50 μl of biotin antibody cocktail was added and incubated for 1 hour at room temperature while shaking. Following additional washes, 50 μl of diluted Streptavidin-PE was then added for incubation for 30 minutes at room temperature while shaking. The plate was then washed again and the micro-particles resuspended in 100 μl wash buffer. After an additional 2-minute incubation while shaking, the data was acquired using a Luminex 200 instrument.
In-vitro cultures of PF and cells in the iFA model were washed once with PBS and total RNA from the samples were extracted using the RNeasy Mini Kit (Qiagen) according to the manufacturer's instructions. For the lung slice cultures (LSC), tissues were snap-frozen after treatment and stored at −80° C. until RNA isolation. Lung slices were homogenized using a handheld homogenizer and passing the homogenate through a Qiashredder (Qiagen). Total RNA from the LSC and cells from the disease model were extracted using the RNeasy Mini Kit (Qiagen) according to the manufacturer's instructions. The RNA concentrations were measured on a NanoDrop ND-1000 spectrophotometer. Single-stranded cDNA was synthesized from 200 ng of total RNA using Superscript IV and random hexamer primers (Invitrogen) in a volume of 20 μl. cDNA was then used for qRT-PCR analysis. PCR reactions were performed using Taqman Gene Expression Assay mix (Applied Biosystems) according to the manufacturer's instructions.
qRT-PCR reactions were performed using the StepOnePlus (Applied Biosystems). Relative gene expression was calculated using the 2^−ΔΔCt method, with 18S Cat. #4331182 (Invitrogen) as housekeeping gene. For the RT^2qPCR arrays, cDNA from DMSO and AA5 treated iFA and was added to the RT^2 qPCR iTaq Universal SYBR green Master Mix (Biorad). 20 μl of the experimental cocktail was added to each well of the Fibrosis PCR (Qiagen). Real-Time PCR was performed on the StepOnePlus qPCR system (Applied Biosystems) using SYBR green detection according to the manufacturer's recommendations. All data from the PCR was collected and analyzed by SA Bioscience's PCR Array Data Analysis Web Portal.
Cells grown on coverslips were fixed in 4% paraformaldehyde (PFA) for 10 min at room temperature and washed three times with TBS buffer supplemented with 0.1% Tween 20 (TBST). Lung samples were fixed overnight in 4% PFA at room temperature, washed 3 times in PBS, dehydrated and then infiltrated and embedded with wax. Five-micron sections were collected on glass slides, deparaffinized and rehydrated. Heat-induced epitope retrieval was performed using 1 mM EDTA in a microwave. […]

[2] = library compound plated with cells on day 1 on hydrogel, phenotype on day 7, 10 μM

## COC(=O)/C=C/c1cc(O)ccc1O
[1]
  Dose response: ++ (++ = moderate effect)
  Efficacy in secondary screen: ++ (++ = moderate effect)
[1]; [2]
  Efficacy in primary screen: +++ (+++ = strong effect)

## CN(C)c1ccc(C(=C2C=CC(=[N+](C)C)C=C2)c2ccc(N(C)C)cc2)cc1.[Cl-]
[1]
  Efficacy in secondary screen: ++ (++ = moderate effect)
[1]; [2]
  Efficacy in primary screen: +++ (+++ = strong effect)

## NC(CP(=O)(O)O)C(=O)O (racemic) [±)-2-Amino-3-phosphonopropionic acid]
[1]
  Efficacy in secondary screen: +
[1]; [2]
  Efficacy in primary screen: +++ (+++ = strong effect)

## CN1CCC2(C)c3cc(O)ccc3N(C)C12.O=C(O)/C=C/C(=O)O (single isomer, unassigned; (-)) [(−)Eseroline fumarate salt., (−)Eseroline fumarate salt]
[1]
  Efficacy in secondary screen: ++ (++ = moderate effect)
[1]; [2]
  Efficacy in primary screen: +++ (+++ = strong effect)

## COc1ccc2c(c1)c(CC(=O)O)c(C)n2Cc1ccc(Cl)cc1 [1-(4-Chlorobenzyl)-5-methoxy-2-methylindole-3-acetic acid]
[1]
  Efficacy in secondary screen: +
[1]; [2]
  Efficacy in primary screen: +++ (+++ = strong effect)

## S=C(Nc1ccccc1)Nc1nccs1 [1-Pheny1-3-(2-thiazolyl)-2-thiourea]
[1]
  Efficacy in secondary screen: +
[1]; [2]
  Efficacy in primary screen: +++ (+++ = strong effect)

## CCCCC/C=C\C/C=C\C/C=C\C/C=C\CCCC(=O)NCc1ccc(O)c(OC)c1 [Arvanil]
[1]
  Efficacy in secondary screen: +
[1]; [2]
  Efficacy in primary screen: +++ (+++ = strong effect)

## CC(NC(C)(C)C)C(=O)c1cccc(Cl)c1 (stereo not drawn) [Bupropion hydrochloride]
[1]
  Efficacy in secondary screen: +
[1]; [2]
  Efficacy in primary screen: +++ (+++ = strong effect)

## CN1CCN(c2cccc(Nc3nc4c(-c5ccc(S(C)(=O)=O)cc5)cccn4n3)c2)CC1 [CEP-33779 JAK2 Inhibitor]
[1]
  Efficacy in secondary screen: ++ (++ = moderate effect)
[1]; [2]
  Efficacy in primary screen: +++ (+++ = strong effect)

## CC(C)(CO)Cc1cc(C(C)(C)C)c(O)c(C(C)(C)C)c1 [CGP-7930]
[1]
  Efficacy in secondary screen: +
[1]; [2]
  Efficacy in primary screen: +++ (+++ = strong effect)

## CC(C)(C=O)Cc1cc(C(C)(C)C)c(O)c(C(C)(C)C)c1 [CGP-13501]
[1]
  Efficacy in secondary screen: +
[1]; [2]
  Efficacy in primary screen: +++ (+++ = strong effect)

## CCCNC(=O)NS(=O)(=O)c1ccc(Cl)cc1 [Chlorpropamide]
[1]
  Efficacy in secondary screen: +
[1]; [2]
  Efficacy in primary screen: +++ (+++ = strong effect)

## Cc1cc(C2CCCCC2)n(O)c(=O)c1.NCCO [Ciclopirox ethanolamine., Ciclopirox ethanolamine]
[1]
  Efficacy in secondary screen: ++ (++ = moderate effect)
[1]; [2]
  Efficacy in primary screen: +++ (+++ = strong effect)

## O=P1(N(CCCl)CCCl)NCCCO1 (stereo not drawn) [Cyclophosphamide]
[1]
  Efficacy in secondary screen: +
[1]; [2]
  Efficacy in primary screen: +++ (+++ = strong effect)

## CSCC[C@@H](N)C(=O)O [D-methionine]
[1]; 168 h, 10 µM
  Efficacy in primary screen: +++ (+++ = strong effect)
[1]
  Efficacy in secondary screen: ++ (++ = moderate effect)

## COC(=O)Nc1nc2ccc(Sc3ccccc3)cc2[nH]1 [Fenbendazole., Fenbendazole]
[1]
  Efficacy in secondary screen: ++ (++ = moderate effect)
[1]; [2]
  Efficacy in primary screen: +++ (+++ = strong effect)

## N#CC(C#N)=C(N)/C(C#N)=C/c1cc(O)c(O)c(O)c1 [Tyrphostin 51]
[1]
  Efficacy in secondary screen: +
[1]; [2]
  Efficacy in primary screen: +++ (+++ = strong effect)

## C[C@@H](N)[C@H]1CC[C@H](C(=O)Nc2ccncc2)CC1 [Y-27632 Rock Inhibitor]
[1]
  Efficacy in secondary screen: ++ (++ = moderate effect)
[1]; [2]
  Efficacy in primary screen: +++ (+++ = strong effect)

## NCCCC(=O)O [γ-Aminobutyric acid]
[1]
  Efficacy in secondary screen: +
[1]; [2]
  Efficacy in primary screen: +++ (+++ = strong effect)

B1: Recombinant Human IFN-gamma Protein: Recombinant Human IFN-gamma Protein; IFNs are known anti-fibrotic cytokines (protein, UniProt P01579 24-161, looked up)
Interferon gamma: QDPYVKEAENLKKYFNAGHSDVADNGTLFLGILKNWKEESDRKIMQSQIVSFYFKLFKNFKDDQSIQKSVETIKEDMNVKFFNSNKKKRDDFEKLTNYSVTDLNVQRKAIHELIQVMAELSPAAKTGKRKRSQMLFRG
[1]
  Prevention/rescue of the iFA phenotype: Partial prevention of the iFA phenotype
  Dose response: +
  Efficacy in secondary screen: ++ (++ = moderate effect)
[1]; listed as recombinant IFNγ
  Prevention/rescue of the iFA phenotype: partially rescued the iFA phenotype
[1]; [2]
  Efficacy in primary screen: +++ (+++ = strong effect)
iFA model
  α-SMA and Collagen I (IF): reduced
